Results taken from US9440963B2, “Compositions, formulations and methods for treating ocular diseases” (Aerpio Therapeutics Inc., priority 2013, dated 2016).
Values after ≈ are worked out from the molar mass of the structure shown. Like-named read-outs stand apart in the source and are kept apart here.

Tests used:
[1] = Room temperature aqueous solubility with solubilizing agents (Example 36); type: physicochemical
Excerpt: The room temperature aqueous solubility (mg/mL) of the a compound (4-{(S)-2-[(S)-2-methoxycarbonylamino)-3-phenylpropanamido]-2-[2-(thiophen-2-yl)thiazol-4-yl]ethyl}phenylsulfamic acid) in water, HPβCD, Poloxamer 407, and sulfobutylether-β-cyclodextrin, is provided in TABLE XXVII. Solubility in saline for the test compound is reduced presumably due to the common ion effect.
The solubility (mg/mL) of the test compound in mixtures of HPβCD and PEG400 is illustrated in TABLE XXVIII.

[2] = human, in vivo
Experimental: FIG. 9 depicts the mean plasma concentration over time after a single dose of a 5 mg, a 15 mg, a 22.5 mg, or a 30 mg of a test compound on day 14, respectively, in a multiple ascending dose study in patients with diabetic macular edema.
A phase 1B/2A open-label, Multiple-ascending dose cohort study to assess the pharmacokinetics and pharmacodynamics effect of 28-day repeat subcutaneous dose of 4-{(S)-2-[(S)-2-(methoxycarbonylamino)-3-phenylpropanamido]-2-[2-(thiophen-2-yl)thiazol-4-yl]ethyl}phenylsulfamic acid (drug) in subjects with diffuse diabetic macular edema (DME).
The aim of this study was to evaluate tolerability, safety, efficacy and pharmacokinetics and pharmacodynamics in patients with DME involving the center of the fovea with central subfield mean thickness ≧325 μm measured by spectral domain-optical coherence tomography (SD-OCT).
Twenty-four patients were administered ascending doses of test compound twice daily (BID) for 28 days in 4 separate cohorts at 5, 15, 22.5 or 30 mg BID, respectively.
Drug was supplied as a lyophilized powder in a vial for reconstitution. Each vial contained 100 mg drug and 250 mg HPβCD. Vials were reconstituted with sterile 5% dextrose for cohort 1 (5 mg BID) and with sterile diluent containing 5% HPβCD/1% dextrose for cohorts 2, 3, and 4 (15 mg, 22.5 mg and 30 mg BID).
For cohorts 1 (5 mg BID) and 2 (15 mg BID) the volume administered for each dose was 0.5 ml (10 and 30 mg/ml, respectively) and for cohorts 3 and 4 the volume was 0.75 ml (30 and 40 mg/ml, respectively).
Blood samples for pharmacokinetic profiling were taken pre-dose (0), 15 minutes, 1 hour, 2 hours, 3 hours and 4 hours after administration of the first dose on day 14.
Plasma drug concentration was determined with a validated LC/MS-MS method. The pharmacokinetic (PK) parameters were determined using a standard non-compartmental method, and Cmax, AUClast (with last being from time 0 to the last quantifiable point), AUCinf, were analyzed statistically using log-transformed data.

[3] = Chemical and physical stability of aqueous solution formulations (Table XXIX); type: physicochemical; details: for Concentration of test compound in aqueous solution formulation shown to be chemically and physically stable: chemically stable 1 month at 50 °C, physically stable at 5 °C, ambient, 50 °C
Experimental: TABLE XXIX contains aqueous solution formulations of the test compound above with the denoted solvents that have been prepared and shown to be chemically stable through 1 month at 50° C., and physically stable at 5° C., at ambient temperature, and at 50° C. […] The target pH range for the formulations is pH 7+/−0.5 pH units.

## COC(=O)N[C@@H](Cc1ccccc1)C(=O)N[C@@H](Cc1ccc(NS(=O)(=O)O)cc1)c1csc(-c2cccs2)n1 [test compound]
[1]
  solubility with either HPβCD or PEG400 individually: increase in solubility
[1]; 0% HPβCD, 15% PEG400
  Solubility: 30 mg/mL (≈ 51.1 mM)
[1]; 0% HPβCD, 30% PEG400
  Solubility: 68 mg/mL (≈ 116 mM)
[1]; 15% HPβCD, 0% PEG400
  Solubility: 59 mg/mL (≈ 101 mM)
[1]; 15% HPβCD, 5% PEG400
  Solubility: 57 mg/mL (≈ 97.2 mM)
[1]; 15% HPβCD, 10% PEG400
  Solubility: 34 mg/mL (≈ 57.9 mM)
[1]; 15% HPβCD, 15% PEG400
  Solubility: 6 mg/mL (≈ 10.2 mM)
[1]; room temperature, aqueous, 0% HPβCD (water)
  Solubility: 27 mg/mL (≈ 46 mM)
[1]; room temperature, aqueous, 10% HPβCD
  Solubility: 45 mg/mL (≈ 76.7 mM)
[1]; room temperature, aqueous, 15% SBE-β-CD
  Solubility: 44 mg/mL (≈ 75 mM)
[1]; room temperature, aqueous, 20% HPβCD
  Solubility: 57 mg/mL (≈ 97.2 mM)
[1]; room temperature, aqueous, 20% Poloxamer 407
  Solubility: 44 mg/mL (≈ 75 mM)
[1]; room temperature, aqueous, 30% HPβCD
  Solubility: 72 mg/mL (≈ 123 mM)
[1]; solubility inversely proportional to the amount of PEG400
  solubility on addition of PEG400 to a mixture with HPβCD: erosion of solubility
[2]
  overall exposures versus dose: approximately dose proportional
[2]; 5 mg
  AUCinf Geometric Mean: 102.92 ng·h/mL
  AUCinf Mean: 106.46 ng·h/mL
  AUCinf Median: 100.55 ng·h/mL
  AUCinf Min-Max: 70.1 to 155.1 ng·h/mL
  AUClast Geometric Mean: 98.63 ng·h/mL
  AUClast Mean: 101.56 ng·h/mL
  AUClast Median: 97.03 ng·h/mL
  AUClast Min-Max: 67.9 to 142.6 ng·h/mL
  Cmax Geometric Mean: 0.07448 µg/mL
  Cmax Mean: 0.07775 µg/mL
  Cmax Median: 0.07344 µg/mL
  Cmax Min-Max: 0.0447 to 0.1081 µg/mL
  t1/2 Mean (SD): 0.85 (0.186) hr
  t1/2 Median: 49.8 min
  t1/2 Min-Max: 36 to 66 min
  tmax Mean (SD): 0.31 (0.134) hr
  tmax Median: 15.6 min
  tmax Min-Max: 18 to 36 min
[2]; 15 mg
  AUCinf Geometric Mean: 245.89 ng·h/mL
  AUCinf Mean: 255.08 ng·h/mL
  AUCinf Median: 232.89 ng·h/mL
  AUCinf Min-Max: 176.8 to 387.4 ng·h/mL
  AUClast Geometric Mean: 230.97 ng·h/mL
  AUClast Mean: 239.08 ng·h/mL
  AUClast Median: 213.32 ng·h/mL
  AUClast Min-Max: 170.4 to 353.3 ng·h/mL
  Cmax Geometric Mean: 0.14986 µg/mL
  Cmax Mean: 0.15657 µg/mL
  Cmax Median: 0.13805 µg/mL
  Cmax Min-Max: 0.1025 to 0.2263 µg/mL
  t1/2 Mean (SD): 0.96 (0.282) hr
  t1/2 Median: 53.4 min
  t1/2 Min-Max: 36 to 84 min
  tmax Mean (SD): 0.27 (0.039) hr
  tmax Median: 15 min
  tmax Min-Max: 12 to 18 min
[2]; 22.5 mg
  AUCinf Geometric Mean: 454.63 ng·h/mL
  AUCinf Mean: 498.12 ng·h/mL
  AUCinf Median: 358.19 ng·h/mL
  AUCinf Min-Max: 322.4 to 813.8 ng·h/mL
  AUClast Geometric Mean: 400.80 ng·h/mL
  AUClast Mean: 437.51 ng·h/mL
  AUClast Median: 328.84 ng·h/mL
  AUClast Min-Max: 302.7 to 789.6 ng·h/mL
  Cmax Geometric Mean: 0.21572 µg/mL
  Cmax Mean: 0.2374 µg/mL
  Cmax Median: 0.2032 µg/mL
  Cmax Min-Max: 0.1427 to 0.4005 µg/mL
  t1/2 Mean (SD): 0.84 (0.093) hr
  t1/2 Median: 52.2 min
  t1/2 Min-Max: 42 to 54 min
  tmax Mean (SD): 0.45 (0.370) hr
  tmax Median: 16.2 min
  tmax Min-Max: 18 to 60 min
[2]; 30 mg
  AUCinf Geometric Mean: 824.87 ng·h/mL
  AUCinf Mean: 828.62 ng·h/mL
  AUCinf Median: 834.70 ng·h/mL
  AUCinf Min-Max: 729.7 to 921.4 ng·h/mL
  AUClast Geometric Mean: 657.33 ng·h/mL
  AUClast Mean: 669.37 ng·h/mL
  AUClast Median: 700.90 ng·h/mL
  AUClast Min-Max: 444.1 to 796.1 ng·h/mL
  Cmax Geometric Mean: 0.31424 µg/mL
  Cmax Mean: 0.32048 µg/mL
  Cmax Median: 0.32085 µg/mL
  Cmax Min-Max: 0.2209 to 0.4261 µg/mL
  t1/2 Mean (SD): 1.07 (0.338) hr
  t1/2 Median: 55.8 min
  t1/2 Min-Max: 48 to 90 min
  tmax Mean (SD): 0.63 (0.391) hr
  tmax Median: 38.4 min
  tmax Min-Max: 12 to 60 min
[2]; sc, 30 mg
  Tmax: 12 to 60 min
  elimination half-life: 36 to 90 min
[3]; 4.5% mannitol, 5 mg/mL test compound, one week at room temperature and one week at 50 °C
  Physical and chemical stability of formulation: ^bPhysically and chemically stable through one week at room temperature and one week at 50 °C
[3]; 4.5% mannitol, one week at room temperature and one week at 50 °C
  Concentration of test compound in aqueous solution formulation shown to be stable: 5 mg/mL^b
[3]; 10% HPβCD
  Concentration of test compound in aqueous solution formulation shown to be chemically and physically stable: 15000 µg/mL
[3]; 15% HPβCD/0.25% saline, evaluated for short-term physical stability at 5 °C and ambient temperature
  Concentration of test compound in aqueous solution formulation evaluated for stability: 40 mg/mL^a
[3]; 25% HPβCD
  Concentration of test compound in aqueous solution formulation shown to be chemically and physically stable: 50000 µg/mL
[3]; 30% HPβCD
  Concentration of test compound in aqueous solution formulation shown to be chemically and physically stable: 50000 µg/mL
